These results are taken from US20040229241A1, “Cloned mammalian polyamine oxidase” (priority 2001, published 2004).

Experiment [1] concerns the target T1, purified recombinant human PAOh1/SMO (Homo sapiens, UniProt Q9NWM0).
T1 construct: A 1702 bp fragment of the PAOh1cDNA was produced by PCR; His tag (pET15b) (N); made in house; host or cells: Escherichia coli BL21(DE3)
Nature of the experiment: Oxidase activity of purified recombinant PAOh1/SMO, luminol chemiluminescence. To be noted: for ability to serve as substrate (oxidation by purified PAOh1/SMO): 250 μM of compound; for inhibition of PAOh1/SMO activity, increasing concentrations: 250 μM spermine. Type of experiment: biochemical. As to the method:
Expression and Purification of PAOh1/SMO. The pET15b/PAOh1/SMO plasmid was used to transform the BL21(DE3) strain of Escherichia coli (Novagen) and transformed cells were selected on LB agar with 50 μg/ml ampicillin. The expression of PAOh1/SMO protein was induced in LB medium by the addition of 1 mM IPTG for 3 h at 37 ° C. Cell lysates were prepared under denaturing conditions with 8M urea and PAOh1/SMO protein was purified from the lysate by Ni-NTA resin according to the manufacturer's protocol (Qiagen, Valencia, Calif.). The resulting denatured protein was renatured in buffers containing decreasing concentrations of urea (5M urea, 4 h; 2.5M urea, 4 h; 1M urea, 12 h; and 0M urea, 12 h) and 50 mM Tris-HCl, pH 7.5, 250 mM NaCl, 0.1 mM EDTA, 1 mM DTT, and 0.2 μM flavin adenine dinucleotide (FAD).
Determination of PAO enzyme activity. PAO activity of the purified PAOh1/SMO was assayed using a modi.cation of the chemiluminesence analysis reported by Fernandez et al. and Rogers, et al.. Briefly, luminol-dependent chemiluminescence was determined using a Monolight 3010 luminometer with two reagent injectors. Luminol was prepared as a 100 mM stock solution in DMSO and diluted to 100 μM with H2O, immediately prior to use. Purified PAOh1/SMO was assayed in a 100 mM glycine buffer, pH 8.0, 5 ηmol luminol, 20 μg horseradish peroxidase, and the polyamine substrate as indicated. All reagents with the exception of the polyamine substrate were combined and incubated for 2 min at 37 ° C., then the tube was transferred to the luminometer, substrate was added, and the resulting chemiluminescence was integrated over 20 s. The integral values are calibrated against standards containing known concentrations of H2O2 and the activities are expressed as pmols H2O2/mg protein/min. Where indicated, inhibitors were added at the specified concentrations prior to the addition of substrate. Km and Vmax values for the purified enzyme with the indicated substrate were estimated using Lineweaver-Burk transformation of the Michaelis-Menten kinetic equation.

Experiment [2] has as its target T2, PAOh4 (Homo sapiens, UniProt Q9NWM0).
T2 construct: For PAO-isoform 4, the cDNA is 1825 bp long; the open reading frame encodes 532 amino acids; made in house; host or cells: Wheat Germ Extract-TnT coupled system (Promega), template pPAOh4 (pcDNA3.1), cDNA from HEK-293 mRNA
Nature of the experiment: Kinetics of TnT-produced PAOh4 isoenzyme. Type of experiment: biochemical. To be noted: named compound as substrate. How it is done: For PAO splice variant protein analysis, each cDNA construct, as well as the pcDNA3.1 empty vector, was linearized using NdeI. In vitro transcription and translation was subsequently performed using the Wheat Germ Extract-TnT coupled system from Promega (Madison, Wis., U.S.A.) according to the manufacturer's protocol. Reactions were performed in parallel, with one aliquot containing [^35S]methionine in the amino acid mixture for subsequent separation and quantification by SDS-PAGE. […] After drying, bands were visualized and quantified using phosphorimage analysis with Image Quant software from Molecular Dynamics (Sunnyvale, Calif., U.S.A.).
TnT products from the reactions using unlabelled substrates were used for PAO enzyme analysis by the method of Suzuki et al. Specifically, 10 μl of the TnT reaction mixture was used for each 600 μl of PAO assay sample (in duplicate, and in the presence of monoamine and diamine oxidase inhibitors, as previously described). Background oxidase activity in the Wheat Germ Extract-TnT reactions was determined for each substrate using the empty pcDNA3.1 vector. These values (always<0.05 pmol/min) were subtracted from the oxidase activity measured in TnT lysates produced from vectors containing the individual splice variants. To ensure linearity of the reaction (thereby determining the optimal incubation time after substrate addition), time courses were performed for each potential isoenzyme in the presence of 1 mM Spm (Sigma, St. Louis, Mo., U.S.A.).
Apparent kinetics were examined for each isoenzyme using TnT reaction products as described above with increasing concentrations of Spm, Spd (Sigma) or N^1-acetylspermine (N^1-AcSpm; Fluka). Apparent Km and Vmax values were determined using the Lineweaver-Burk transformation of the Michaelis-Menten equation. Values were adjusted for TnT reaction efficiency by SDS-PAGE quantfication of a [^35S]methionine-labelled aliquot of the TnT reaction mixture normalized for methionine content.

Experiment [3] concerns PAOh1/SMO. Nature of the experiment: PAOh1/SMO activity in lysates of NCI A549 cells after analogue treatment. In kind it is cell-based, human. To be noted: for substrate of the inducible PAOh1/SMO activity: lysates of NCI A549 treated with 10 μM BENSpm or CPENSpm 24 h, 250 μM substrate; for induction of PAOh1/SMO activity: NCI A549, 24 h exposure to 10 μM of each analogue. As to the method:
(§1) Cell Culture and Analysis of Growth Inhibition of Human Lung Cancer Cell Lines The non-small-cell cancer lines NCI A549 (adenocarcinoma), NCI H157 (squamous), NCI H727 (carcinoid), NCI H125 (adenocarcinoma) and U1752 (squamous), and the small-cell lung carcinoma lines NCI H82 and NCI H889 were cultured as we have previously described. Cells were treated for the times and with the concentrations of specific agents as indicated in the Results. For cell growth analysis in the presence of the PAOh1/SMO inhibitor MDL 72,527, the MTS dye reduction assay CellTiter 96 system from Promega was used according to the supplier's protocol. In these experiments, NCI A549 cells were seeded at 5×10^3 cells/well in a 96-well microtiter plate and treated for 96 h with 10 μM of the indicated analogue in the presence or absence of 250 μM MDL 72,527.
(§2) Total cellular RNA was extracted from the lung cancer cell lines using Trizol reagent (Invitrogen) according to the manufacturer's protocol. For Northern blotting, total RNA (20 lg) was separated on a denaturing 1.5% agarose gel containing 6% formaldehyde and transferred to Zetaprobe membrane (Bio-Rad). Random primer- labeled PAOh1 cDNA was used as probe to estimate PAOh1/SMO expression. Blots were stripped and reprobed with an 18S ribosomal cDNA to provide a loading control. Analysis of polyamine content, SSAT and PAOh1/SMO activity. Intracellular polyamine concentrations were determined using the precolumn dansylation labeling, reverse-phase high-pressure liquid chromatography method as described by Kabra et al. using 1,7-diaminoheptane as an internal standard. Polyamine concentrations are reported as nanomoles per milligram protein for each sample, where lysate protein content was measured by the method of Bradford. SSAT activity of cellular extracts was measured as previously described. […] The PAOh1/SMO assays were performed in the presence of 1.0 mM pargyline and 0.1 mM semicarbizide as inhibitors of monoamine oxidase (MAO) and diamine oxidase (DAO), respectively.

For experiment [4], the system named is NCI A549 cells. Nature of the experiment: MTS cell growth analysis of NCI A549 cells with or without MDL 72,527. Type of experiment: cell-based, human. To be noted: NCI A549, 96 h, 10 μM analogue with 250 μM MDL 72,527. How it is done:
as §1

Experiment [5] has as its system NCI A549 cells. Nature of the experiment: Intracellular polyamine and analogue content of NCI A549 cells (HPLC). In kind it is cell-based, human. Particulars: NCI A549, 10 μM, 24 h.
From the text: as §2

Experiment [6] deals with SSAT. Nature of the experiment: SSAT activity of NCI A549 cellular extracts. To be noted: NCI A549, 10 μM, 24 h; untreated 5 ± 0.1. In kind it is cell-based, human.
From the text: as §2

Where [7] appears, read: named compound as substrate, Lineweaver-Burk.

T2 sequence (Q9NWM0 1-532 isoform Q9NWM0-4): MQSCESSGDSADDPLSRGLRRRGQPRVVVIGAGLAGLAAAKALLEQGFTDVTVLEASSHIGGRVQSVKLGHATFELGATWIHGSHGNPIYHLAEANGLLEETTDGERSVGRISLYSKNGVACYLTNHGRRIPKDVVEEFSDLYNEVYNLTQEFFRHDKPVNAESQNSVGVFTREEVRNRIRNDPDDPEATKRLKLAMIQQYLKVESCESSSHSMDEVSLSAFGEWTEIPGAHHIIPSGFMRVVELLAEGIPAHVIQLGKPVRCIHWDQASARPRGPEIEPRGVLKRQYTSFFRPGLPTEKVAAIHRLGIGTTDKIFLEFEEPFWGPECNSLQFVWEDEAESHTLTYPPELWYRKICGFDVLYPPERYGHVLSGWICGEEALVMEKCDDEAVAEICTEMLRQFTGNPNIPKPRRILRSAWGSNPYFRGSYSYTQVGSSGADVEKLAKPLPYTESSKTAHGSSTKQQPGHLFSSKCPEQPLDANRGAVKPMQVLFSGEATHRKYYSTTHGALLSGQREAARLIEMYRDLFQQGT
T1 sequence (Q9NWM0 whole entry, the tested form may be a part): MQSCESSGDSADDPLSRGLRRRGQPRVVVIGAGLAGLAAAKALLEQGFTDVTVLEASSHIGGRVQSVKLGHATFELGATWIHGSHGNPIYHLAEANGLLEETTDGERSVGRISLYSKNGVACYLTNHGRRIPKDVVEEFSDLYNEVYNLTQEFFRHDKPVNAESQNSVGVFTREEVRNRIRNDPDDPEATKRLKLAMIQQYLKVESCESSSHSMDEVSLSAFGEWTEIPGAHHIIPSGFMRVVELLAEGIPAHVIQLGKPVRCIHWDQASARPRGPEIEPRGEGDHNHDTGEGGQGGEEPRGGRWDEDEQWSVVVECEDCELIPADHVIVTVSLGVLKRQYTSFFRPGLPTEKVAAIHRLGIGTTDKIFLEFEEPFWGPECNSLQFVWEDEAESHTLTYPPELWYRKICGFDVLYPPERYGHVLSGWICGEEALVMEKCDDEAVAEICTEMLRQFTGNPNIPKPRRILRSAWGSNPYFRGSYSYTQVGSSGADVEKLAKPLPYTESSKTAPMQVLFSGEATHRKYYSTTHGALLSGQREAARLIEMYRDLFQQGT

As to `NCCCCNCCCN` [spermidine], the “ability to serve as substrate (oxidation by purified PAOh1/SMO)” value (from here on “ability … (oxidation by purified PAOh1/SMO)”) in experiment [1] is “No PAOh1/SMO activity was observed”. In addition, the “Km of PAOh4” value in experiment [2] is given as “nanomolar range”. In addition, the “substrate of the inducible PAOh1/SMO activity” value in experiment [3] was “not significantly active”.

In general, Km refers to the substrate concentration at which the rate is half of its maximum. Regarding `CC(=O)NCCCNCCCCNCCCN` [N^1-acetylspermine], in experiment [1], the “ability … (oxidation by purified PAOh1/SMO)” value was “less efficient”. Besides, in experiment [1] (setting [7]), the Km came out at 51 µM and the “Vmax of purified PAOh1/SMO” value worked out at 0.251 μmol/mg protein/min. For the same compound, the “Km of PAOh4” value in experiment [2] is recorded as “nanomolar range”. For the same compound, in experiment [3], the “substrate of the inducible PAOh1/SMO activity” value was “not significantly active”.

In the case of `NCCCNCCCCNCCCN` [spermine], the “ability … (oxidation by purified PAOh1/SMO)” value in experiment [1] is given as “efficiently oxidize”. Besides, the “Km of PAOh4” value in experiment [2] is on record as “nanomolar range”. Further, the “substrate of the inducible PAOh1/SMO activity” value in experiment [3] is recorded as “only spermine was a substrate”.

With `CCNCCCCNCCCCNCCCCNCCCCNC/C=C\CNCCCCNCCCCNCCCCNCCCCNCC` [SL-11150], in experiment [1], the “potency relative to MDL 72,527” value is listed as 100 times; the “ability … (oxidation by purified PAOh1/SMO)” value was “none of the analogues examined were found to be oxidized”; the “inhibition of PAOh1/SMO activity, increasing concentrations” value is on record as “potent inhibitors”. The “induction of PAOh1/SMO activity” value in experiment [3] was “did not induce”.

Regarding `CCNCCCCNCCCCNCCCCNCCCCNC/C=C/CNCCCCNCCCCNCCCCNCCCCNCC` [SL-11144], in experiment [1], the “potency relative to MDL 72,527” value turned out to be 100 times; the “ability … (oxidation by purified PAOh1/SMO)” value was “none of the analogues examined were found to be oxidized”; the “inhibition of PAOh1/SMO activity, increasing concentrations” value was “potent inhibitors”. In addition, the “induction of PAOh1/SMO activity” value in experiment [3] is on record as “did not induce”.

As to `CCNCCCNCCCNCCCNCC1CC1` [CPENSpm, N^1-ethyl-N^11-(cyclopropyl) methyl-4,8,diazaundecane], the “sensitivity of cell growth to analogue in the presence of the PAOh1/SMO inhibitor” value in experiment [4] is on record as “clear decrease in sensitivity”. Also, in experiment [5] (untreated 2.1 ± 0.7), the “Polyamine: Putrescine” value is recorded as under 0.05 nmol/mg protein. For the same compound, the “Polyamine: Spermine” value in experiment [5] (untreated 9.9 ± 1.2) amounted to 2.4 ± 0.4 nmol/mg protein. The “Polyamine: Spermidine” value in experiment [5] (untreated 26.9 ± 1.2) is 5.5 ± 0.2 nmol/mg protein. In experiment [1], the “ability … (oxidation by purified PAOh1/SMO)” value is given as “none of the analogues examined were found to be oxidized”. Moreover, the SSAT activity in experiment [6] was 1190 ± 287.9 pmol N^1-acetylspermidine/mg p. Moreover, the PAOh1/SMO activity in experiment [3] (NCI A549, 10 μM, 24 h, untreated 6,390 ± 2,070) was 14,300 ± 3,700 pmol H2O2/mg/h. Moreover, the “induction of PAOh1/SMO activity” value in experiment [3] is given as “significant induction”. In addition, in experiment [3] (NCI A549, increasing concentrations, 24 h), the “dose-dependence of PAOh1/SMO activity” value was “continued to increase at concentrations up to 50 μM”.

As for `CCNCCCNCCCNCCCNCC1CCCCCC1` [CHENSpm, N^1-ethyl-N^11-(cycloheptyl) methyl-4,8,diazaundecane], in experiment [1], the “ability … (oxidation by purified PAOh1/SMO)” value is listed as “none of the analogues examined were found to be oxidized” and the “inhibition of PAOh1/SMO activity, increasing concentrations” value is “not found to profoundly inhibit”. Besides, the “inhibition of PAOh1/SMO activity” value in experiment [1] (at 10 μM) is recorded as under 20%. Besides, the “induction of PAOh1/SMO activity” value in experiment [3] is recorded as “significant induction”.

With `CCNCCCNCCCNCCCNC[C@@H](C)CC` [IPENSpm, (S)-N1-(2-methyl-1-butyl)-N^11-ethyl-4,8,diazaundecane], in experiment [1], the “ability … (oxidation by purified PAOh1/SMO)” value is “none of the analogues examined were found to be oxidized”. The “induction of PAOh1/SMO activity” value in experiment [3] is reported as “significant induction”.
